ChEMBL document CHEMBL4152250, “Antibacterial and anti-TB tat-peptidomimetics with improved efficacy and half-life” (Eur J Med Chem, 2018)
Values after ≈ are worked out from the molar mass of the structure shown. Active and inactive are the calls of the source. No cut-off for these calls is given here.

Assays:
Pseudomonas aeruginosa = assay: Antibacterial activity against Pseudomonas aeruginosa NCIM 2036 after 8 hrs by serial dilution method; format: functional, organism-based; settings: NCIM 2036, 8 h
[1] = tested on: Staphylococcus epidermidis; assay: Antibacterial activity against Staphylococcus epidermidis NCIM 5270 after 12 hrs by serial dilution method; format: functional, organism-based; settings: NCIM 5270, 12 h
[2] = Drug degradation assessed as pepsin (unknown origin)-mediated compound hydrolysis by measuring remaining compound levels at 0.5 hrs by RP-HPLC method; format: ADME; settings: human, read-out: Stability
Enterobacter sp. = assay: Antibacterial activity against Enterobacter sp. NCIM 5392 after 8 hrs by serial dilution method; format: functional, organism-based; settings: NCIM 5392, 8 h
[3] = Drug degradation assessed as bovine pancreas chymotrypsin-mediated compound hydrolysis by measuring remaining compound levels at 10 mM measured at 8 hrs by RP-HPLC method; format: ADME, Bos taurus; settings: cattle, read-out: Stability
Escherichia coli [4] = assay: Antibacterial activity against Escherichia coli NCIM 2688 after 8 hrs by serial dilution method; format: functional, organism-based; settings: NCIM 2688, 8 h
[5] = Drug degradation assessed as bovine pancreas chymotrypsin-mediated compound hydrolysis by measuring remaining compound levels at 10 mM measured at 12 hrs by RP-HPLC method; format: ADME, Bos taurus; settings: cattle, read-out: Stability
Staphylococcus aureus [6] = assay: Antibacterial activity against Staphylococcus aureus NCIM 2010 after 12 hrs by serial dilution method; format: functional, organism-based; settings: NCIM 2010, 12 h
[7] = Drug degradation assessed as pepsin (unknown origin)-mediated compound hydrolysis by measuring remaining compound levels at 8 hrs by RP-HPLC method; format: ADME; settings: human, read-out: Stability
[8] = Drug degradation assessed as bovine pancreas chymotrypsin-mediated compound hydrolysis by measuring remaining compound levels at 10 mM measured at 4 hrs by RP-HPLC method; format: ADME, Bos taurus; settings: cattle, read-out: Stability
[9] = Drug degradation assessed as bovine pancreas chymotrypsin-mediated compound hydrolysis by measuring remaining compound levels at 10 mM measured at 2 hrs by RP-HPLC method; format: ADME, Bos taurus; settings: cattle, read-out: Stability
[10] = Drug degradation assessed as pepsin (unknown origin)-mediated compound hydrolysis by measuring remaining compound levels at 1 hr by RP-HPLC method; format: ADME; settings: human, read-out: Stability
[11] = Drug degradation assessed as bovine pancreas chymotrypsin-mediated compound hydrolysis by measuring remaining compound levels at 10 mM measured at 18 hrs by RP-HPLC method; format: ADME, Bos taurus; settings: cattle, read-out: Stability
[12] = tested on: Mycobacterium tuberculosis; assay: Antitubercular activity against active stage of Mycobacterium tuberculosis H37Ra ATCC 25177 after 8 days by XRMA; format: functional, organism-based; settings: H37Ra ATCC 25177, 192 h
Bacillus subtilis = assay: Antibacterial activity against Bacillus subtilis NCIM 2079 after 12 hrs by serial dilution method; format: functional, organism-based; settings: NCIM 2079, 12 h
[13] = Drug degradation assessed as pepsin (unknown origin)-mediated compound hydrolysis by measuring remaining compound levels at 2 hrs by RP-HPLC method; format: ADME; settings: human, read-out: Stability
[14] = Drug degradation assessed as bovine pancreas chymotrypsin-mediated compound hydrolysis by measuring remaining compound levels at 10 mM measured at 24 hrs by RP-HPLC method; format: ADME, Bos taurus; settings: cattle, read-out: Stability
[15] = Drug degradation assessed as bovine pancreas chymotrypsin-mediated compound hydrolysis by measuring remaining compound levels at 10 mM measured at 1 hr by RP-HPLC method; format: ADME, Bos taurus; settings: cattle, read-out: Stability
[16] = Drug degradation assessed as bovine pancreas chymotrypsin-mediated compound hydrolysis by measuring remaining compound levels at 10 mM measured at 0.5 hrs by RP-HPLC method; format: ADME, Bos taurus; settings: cattle, read-out: Stability
[17] = Drug degradation assessed as pepsin (unknown origin)-mediated compound hydrolysis by measuring remaining compound levels at 18 hrs by RP-HPLC method; format: ADME; settings: human, read-out: Stability
[18] = tested on: Mycobacterium tuberculosis; assay: Antitubercular activity against dormant stage of Mycobacterium tuberculosis H37Ra ATCC 25177 after 12 days by XRMA; format: functional, organism-based; settings: H37Ra ATCC 25177, 288 h
[19] = Drug degradation assessed as pepsin (unknown origin)-mediated compound hydrolysis by measuring remaining compound levels at 12 hrs by RP-HPLC method; format: ADME; settings: human, read-out: Stability
[20] = Drug degradation assessed as pepsin (unknown origin)-mediated compound hydrolysis by measuring remaining compound levels at 4 hrs by RP-HPLC method; format: ADME; settings: human, read-out: Stability
[21] = Drug degradation assessed as pepsin (unknown origin)-mediated compound hydrolysis by measuring remaining compound levels at 24 hrs by RP-HPLC method; format: ADME; settings: human, read-out: Stability
[22] = Cytotoxicity against human HeLa cells assessed as cell viability at 1 to 10 uM after 24 hrs by MTT assay relative to control; format: cell-based; settings: read-out: Activity
[23] = Drug degradation assessed as bovine pancreas chymotrypsin-mediated compound hydrolysis by measuring compound half life at 10 mM by RP-HPLC method; format: ADME, Bos taurus; settings: cattle
Erythrocyte = assay: Hemolytic activity in human RBC at 1 to 40 uM after 1 hr; format: ADME, cell-based
[24] = tested on: Mycobacterium tuberculosis; assay: Disruption of cell wall in active stage of Mycobacterium tuberculosis H37Ra ATCC 25177 at MIC after 60 mins by transmission electron microscopic method; format: functional, organism-based
Staphylococcus aureus [25] = assay: Disruption of cell wall in Staphylococcus aureus NCIM 2010 at MIC after 60 mins by transmission electron microscopic method; format: functional, organism-based
[26] = tested on: Mycobacterium tuberculosis; assay: Disruption of cell wall in dormant stage of Mycobacterium tuberculosis H37Ra ATCC 25177 at MIC after 60 mins by transmission electron microscopic method; format: functional, organism-based
Staphylococcus aureus [27] = assay: Antibacterial activity against Staphylococcus aureus NCIM 2010 assessed as decrease in bacterial viability at 10 ug/ml after 4 hrs by SYTO9/propidium iodide staining-based fluorescence microscopic method; format: functional, organism-based
Escherichia coli [28] = assay: Disruption of cell wall in Escherichia coli NCIM 2688 at MIC after 60 mins by transmission electron microscopic method; format: functional, organism-based

Compound | IC50 (Pseudomonas aeruginosa) | MIC (Pseudomonas aeruginosa) | IC50 [1] | MIC [1] | remaining at 0.5 h [2] | IC50 (Enterobacter sp.) | MIC (Enterobacter sp.) | remaining at 8 h, 10000 µM [3] | IC50 (Escherichia coli [4]) | MIC (Escherichia coli [4]) | remaining at 12 h, 10000 µM [5] | IC50 (Staphylococcus aureus [6]) | MIC (Staphylococcus aureus [6]) | remaining at 8 h [7] | remaining at 4 h, 10000 µM [8] | remaining at 2 h, 10000 µM [9] | remaining at 1 h [10] | remaining at 18 h, 10000 µM [11] | IC50 [12] | IC50 (Bacillus subtilis) | further results
CC(=O)N[C@@H](Cc1ccccc1)C(=O)NCC(=O)N[C@@H](CCCNC(=N)N)C(=O)N[C@@H](CCCCN)C(=O)N[C@@H](CCCCN)C(=O)N[C@@H](CCCNC(=N)N)C(=O)N[C@@H](CCCNC(=N)N)C(=O)N[C@@H](CCC(N)=O)C(=O)N[C@@H](CCCNC(=N)N)C(=O)N[C@@H](CCCNC(=N)N)C(=O)N[C@@H](CCCNC(=N)N)C(N)=O | 26.5 nM | 7.46 µM (≈ 11.8 µg/mL) | 6.9 nM | 5.78 µM (≈ 9.16 µg/mL) | 94.6% | 24 nM | 21.6 µM (≈ 34.2 µg/mL) | 79.6% | 10.1 nM | 6.27 µM (≈ 9.94 µg/mL) | 78.2% | 11.3 nM | 9.91 µM (≈ 15.7 µg/mL) | 90.6% | 82.6% | 84.6% | 94.2% | 75.1% | > 60000 nM | 12 nM | MIC (Bacillus subtilis): 3.34 µM (≈ 5.29 µg/mL); remaining at 2 h [13]: 93.1%; remaining at 24 h, 10000 µM [14]: 15.9%; remaining at 1 h, 10000 µM [15]: 86%; remaining at 0.5 h, 10000 µM [16]: 86.7%; remaining at 18 h [17]: 82.1%; IC50 [18]: 40000 nM; remaining at 12 h [19]: 89%; remaining at 4 h [20]: 93%; remaining at 24 h [21]: 80.6%; viability at 24 h, up to 10 µM [22]: ≥ 80%; half-life at 10000 µM [23]: 4 h
CC(=O)N[C@@H](Cc1ccccc1)C(=O)NCC(=O)N[C@H]1C[C@@H](C(=O)N[C@@H](CCCCN)C(=O)N[C@@H](CCCCN)C(=O)N[C@@H](CCCNC(=N)N)C(=O)N[C@H]2C[C@@H](C(=O)N[C@@H](CCC(N)=O)C(=O)N[C@H]3C[C@@H](C(=O)N[C@@H](CCCNC(=N)N)C(=O)N[C@H]4C[C@@H](C(=O)NCCC(N)=O)N(CCCNC(=N)N)C4)N(CCCNC(=N)N)C3)N(CCCNC(=N)N)C2)N(CCCNC(=N)N)C1 | 4.2 nM | 0.61 µM (≈ 1.14 µg/mL) | 4.2 nM | 1.12 µM (≈ 2.1 µg/mL) | 100% | 4.2 nM | 1.35 µM (≈ 2.53 µg/mL) | 100% | 5.3 nM | 1.12 µM (≈ 2.1 µg/mL) | 100% | 6.4 nM | 1.26 µM (≈ 2.36 µg/mL) | 100% | 100% | 100% | 100% | 100% | 6200 nM | 3.7 nM | Activity (Erythrocyte): Non-Toxic; Activity [24]: Active; Activity (Staphylococcus aureus [25]): Active; MIC [12]: 43.9 µM (≈ 82.4 µg/mL); Activity [26]: Active; MIC (Bacillus subtilis): 0.71 µM (≈ 1.33 µg/mL); remaining at 2 h [13]: 100%; remaining at 24 h, 10000 µM [14]: 100%; remaining at 1 h, 10000 µM [15]: 100%; remaining at 0.5 h, 10000 µM [16]: 100%; Activity (Staphylococcus aureus [27]): Active; remaining at 18 h [17]: 100%; IC50 [18]: 3700 nM; MIC [18]: 36.3 µM (≈ 68.1 µg/mL); remaining at 12 h [19]: 100%; remaining at 4 h [20]: 100%; remaining at 24 h [21]: 100%; viability at 24 h, up to 10 µM [22]: ≥ 80%; half-life at 10000 µM [23]: 16 h; Activity (Escherichia coli [28]): Active
